# Assay results published in patent US20240218327A1, “METHOD FOR QUICKLY AND EFFICIENTLY DIFFERENTIATING FUNCTIONAL GLIAL CELLS” (priority 2020, published 2024).
# How the values were obtained:
# NFIB-induced astrocytes [1] = assay: Calcium transient assay (Fluo-4 calcium imaging); type: cell-based, human
# Procedure: To confirm whether the cells acquire the ability to change intracellular calcium concentration, gene set enrichment analysis (GSEA) was employed to validate the expression pattern of genes related to this specific function. This analysis involved comparing the ranked gene signature of day 0 cells versus day 14 cells, with genes related to calcium-mediated signaling (GO:0019722). […] Calcium imaging was conducted on cells on days 7 and 14 using Fluo-4, a calcium indicator, and the intracellular calcium transients between two time points were compared. For calcium imaging, the differentiated astrocytes were prepared on 12 mm coverslips. After replacing the cell culture medium with Hank's Balanced Salt Solution (HBSS, without calcium or magnesium) (Thermo Fisher Scientific), differentiated astrocytes were incubated with 5 μM Fluo-4 AM (Thermo Fisher Scientific) at 37° C. for 30 minutes and then washed twice with the HBSS solution before calcium imaging. Thereafter, intracellular calcium levels were analyzed using the Fluo-4 AM fluorescence dye detection method, employing a confocal microscope (Fluoview FV1000, Olympus). For this purpose, intensity images of 535 nm wavelength were captured at 488 nm excitation wavelength at a rate of one frame per 2 seconds. Intracellular calcium levels were expressed as a fluorescence ratio (F/FO), calculated as changes in the fluorescence intensity (F) after treatments with 30 μM ATP or 100 μM glutamate, compared to the initial fluorescence intensity (FO) in the resting state.
# hPSC-NPCs = test system: hPSC-NPCs
# Description: FIG. 8A illustrates clustering and scaled expression patterns for differentially expressed genes (DEGs) during the differentiation process using NFIB. […] FIG. 8E and FIG. 8F quantify the percentage of cells positive for each marker on day 14 of differentiation. […] Data is presented as the mean #s.e.m. (n=3) (* p<0.05, ** p<0.01, *** p<0.001).
# NFIB-induced astrocytes [2] = assay: Glutamate uptake analysis; type: cell-based, human; details: 100 µM of glutamate; after 3 hours; day 7 of differentiation; n=6
# Description: Uptake of excitatory neurotransmitters such as glutamate is another critical function of the astrocytes in the nervous system. This is because excessive glutamate concentration results in excitotoxic damage to the nervous tissue, potentially causing neurodegeneration. As there was a gradual upregulation of the neurotransmitter recycling protein, GLUL, in due course of gene expression (FIG. 5C, indicated by a red box with an asterisk), the ability of the NFIB-induced astrocytes to take up glutamate was assessed throughout differentiation to determine whether the ability improves. The astrocytes were exposed to 100 µM of glutamate, and the concentration of glutamate remaining in the medium was measured after 3 hours on day 7 and day 14. […] This increased uptake correlates well with the gradual increment of various genes related to neurotransmitter uptake (GO: 0001504), including SCL1A3 (a gene encoding excitatory amino acid transporter 1, also known as GLAST) and ARL6IP5 (a gene encoding glutamate transporter EEAC1-interacting protein).
compound,measurement,setting,value
Nc1ncnc2c1ncn2[C@@H]1O[C@H](COP(=O)(O)OP(=O)(O)OP(=O)(O)O)[C@@H](O)[C@H]1O [ATP],"cells with amplitude of calcium transients (F/FO) less than 3, among total cells","NFIB-induced astrocytes [1]; 30 μM ATP, day 7 of differentiation, n=70",84.3%
same,"amplitude of calcium transients, fluorescence ratio","NFIB-induced astrocytes [1]; 30 μM ATP, day 14 of differentiation, all the cells tested, n=80",≥ 3 F/FO
same,duration of elevated intracellular calcium level,"NFIB-induced astrocytes [1]; 30 μM ATP, regardless of the differentiation period (day 7 and day 14)",≥ 50 s
N#CC(=C(/N)Sc1ccccc1N)/C(C#N)=C(\N)Sc1ccccc1N [U0126],cell death,hPSC-NPCs; 20 μM,did not induce significant cell death
same,cell proliferation,hPSC-NPCs; 20 μM,tended to slightly decrease cell proliferation
same,GFAP-positive cells (astrocytes) in total cells,"hPSC-NPCs; 20 μM, Treatment Condition 3: two days from day 12 to day 14 of differentiation",26.88%
same,number of SOX1-positive cells,"hPSC-NPCs; 20 μM, among treatment groups, day 14",not significantly different among the groups
same,morphology of GFAP-positive cells,"hPSC-NPCs; 20 μM, compared with vehicle-treated group, correlated with exposure time",small cell body with fewer short processes
same,number of GFAP-positive cells,"hPSC-NPCs; 20 μM, prolonged treatment (Treatment Condition 1 or 2), day 14",significantly reduced the number of GFAP-positive cells
same,astrocyte differentiation (fluorescence images for GFAP and SOX1),"hPSC-NPCs; pharmacological inhibition of the MAPK signaling pathway, FIG. 8D",robust suppression of astrocyte differentiation
glutamate,glutamate uptake,NFIB-induced astrocytes [2],12.34±1.17%
same,duration of asynchronous calcium oscillations,"NFIB-induced astrocytes [1]; 100 μM glutamate, day 7 of differentiation",less than 100 seconds
same,average amplitude of calcium response,"NFIB-induced astrocytes [1]; 100 μM glutamate, day 7 of differentiation, n=19",4.92±0.32 F/FO
same,cells with amplitudes greater than 10,"NFIB-induced astrocytes [1]; 100 μM glutamate, day 14 of differentiation",32.4%
same,amplitude of intracellular calcium peaks,"NFIB-induced astrocytes [1]; 100 μM glutamate, day 14 of differentiation, n=26",9.63±1.07 F/FO
